Measurements from ChEMBL document CHEMBL4387769 (Bioorg Med Chem, 2019).

Tests used:
[1] = biological target: T1, 5-hydroxytryptamine receptor 7 (Homo sapiens, UniProt P34969); test: Binding affinity to 5HT7 (unknown origin)
[2] = biological target: T1, 5-hydroxytryptamine receptor 7; test: Displacement of [3H]5-CT from human 5HT7 receptor expressed in COS7 cells incubated for 30 mins by liquid scintillation counting method; format: cell-based
[3] = biological target: T2, 5-hydroxytryptamine receptor 1A (Homo sapiens, UniProt P08908); test: Displacement of [3H]-8-OH-DPAT from human 5HT1AR expressed in HEK293 cell membranes after 1 hr by microbeta plate reader method
T2 sequence (P08908 whole entry): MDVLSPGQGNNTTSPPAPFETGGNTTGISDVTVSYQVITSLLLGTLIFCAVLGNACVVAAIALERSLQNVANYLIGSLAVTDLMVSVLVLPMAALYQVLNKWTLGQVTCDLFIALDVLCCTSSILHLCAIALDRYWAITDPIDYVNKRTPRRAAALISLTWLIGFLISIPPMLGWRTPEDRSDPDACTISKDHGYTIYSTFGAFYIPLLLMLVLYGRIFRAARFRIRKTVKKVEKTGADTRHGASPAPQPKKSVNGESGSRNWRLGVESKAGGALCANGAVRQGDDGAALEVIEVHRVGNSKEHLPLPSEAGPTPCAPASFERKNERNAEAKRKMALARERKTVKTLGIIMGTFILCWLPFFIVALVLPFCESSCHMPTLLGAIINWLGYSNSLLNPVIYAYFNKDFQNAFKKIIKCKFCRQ

[4] = biological target: 5-hydroxytryptamine receptor 6 (Homo sapiens, UniProt P50406); test: Displacement of [3H]LSD from human 5HT6 receptor expressed in HEK293 cell membranes after 1 hr by microbeta plate reader method
[5] = biological target: T1, 5-hydroxytryptamine receptor 7; test: Displacement of [3H]5-CT from human 5HT7B receptor expressed in HEK293 cell membranes after 1 hr by microbeta plate reader method
D(2) dopamine receptor [6] = biological target: D(2) dopamine receptor (Homo sapiens, UniProt P14416); test: Displacement of [3H]raclopride from human dopamine D2L receptor expressed in HEK293 cells incubated for 1 hr by microbeta plate reader method; format: cell-based
[7] = biological target: 5-hydroxytryptamine receptor 2A (Homo sapiens, UniProt P28223); test: Displacement of [3H]ketanserin from human 5HT2AR expressed in CHO-K1 cell membranes after 1 hr by microbeta plate reader method
[8] = biological target: 5-hydroxytryptamine receptor 2A (Rattus norvegicus, UniProt P14842); test: Displacement of [3H]ketanserin from 5HT2A receptor in rat cortical membranes incubated for 15 mins by liquid scintillation spectrometry; format: cell membranes
D(2) dopamine receptor [9] = biological target: D(2) dopamine receptor (Rattus norvegicus, UniProt P61169); test: Displacement of [3H]spiperone from dopamine D2 receptor in Sprague-Dawley rat striatal membranes incubated for 40 mins; set-up: species or system Striatum, Membrane
Sequence of D(2) dopamine receptor (Rattus norvegicus, UniProt P61169) (P61169 whole entry): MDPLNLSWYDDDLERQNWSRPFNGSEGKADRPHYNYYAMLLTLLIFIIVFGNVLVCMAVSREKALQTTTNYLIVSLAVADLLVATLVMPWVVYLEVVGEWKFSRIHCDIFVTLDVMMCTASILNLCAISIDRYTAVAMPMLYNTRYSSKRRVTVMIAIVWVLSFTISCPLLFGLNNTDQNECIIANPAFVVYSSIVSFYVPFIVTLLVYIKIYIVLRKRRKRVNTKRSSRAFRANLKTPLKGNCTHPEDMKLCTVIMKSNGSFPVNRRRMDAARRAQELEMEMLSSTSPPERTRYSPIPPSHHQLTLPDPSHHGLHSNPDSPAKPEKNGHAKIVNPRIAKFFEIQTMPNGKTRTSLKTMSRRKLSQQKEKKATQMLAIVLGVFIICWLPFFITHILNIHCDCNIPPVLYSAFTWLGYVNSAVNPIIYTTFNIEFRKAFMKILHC

Sequence of 5-hydroxytryptamine receptor 2A (Homo sapiens, UniProt P28223) (P28223 whole entry): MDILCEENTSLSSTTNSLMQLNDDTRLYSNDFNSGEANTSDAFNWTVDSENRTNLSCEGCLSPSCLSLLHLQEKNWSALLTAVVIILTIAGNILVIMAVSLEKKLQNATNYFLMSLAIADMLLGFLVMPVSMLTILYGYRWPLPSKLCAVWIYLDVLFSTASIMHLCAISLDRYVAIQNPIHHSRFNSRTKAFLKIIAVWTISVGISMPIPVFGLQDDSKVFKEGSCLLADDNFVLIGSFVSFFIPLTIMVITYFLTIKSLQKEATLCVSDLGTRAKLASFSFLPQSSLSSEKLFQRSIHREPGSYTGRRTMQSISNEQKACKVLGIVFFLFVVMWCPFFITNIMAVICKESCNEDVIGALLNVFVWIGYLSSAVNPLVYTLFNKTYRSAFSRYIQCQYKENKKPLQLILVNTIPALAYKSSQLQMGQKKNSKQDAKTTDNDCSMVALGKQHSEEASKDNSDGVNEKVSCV
Sequence of 5-hydroxytryptamine receptor 2A (Rattus norvegicus, UniProt P14842) (P14842 whole entry): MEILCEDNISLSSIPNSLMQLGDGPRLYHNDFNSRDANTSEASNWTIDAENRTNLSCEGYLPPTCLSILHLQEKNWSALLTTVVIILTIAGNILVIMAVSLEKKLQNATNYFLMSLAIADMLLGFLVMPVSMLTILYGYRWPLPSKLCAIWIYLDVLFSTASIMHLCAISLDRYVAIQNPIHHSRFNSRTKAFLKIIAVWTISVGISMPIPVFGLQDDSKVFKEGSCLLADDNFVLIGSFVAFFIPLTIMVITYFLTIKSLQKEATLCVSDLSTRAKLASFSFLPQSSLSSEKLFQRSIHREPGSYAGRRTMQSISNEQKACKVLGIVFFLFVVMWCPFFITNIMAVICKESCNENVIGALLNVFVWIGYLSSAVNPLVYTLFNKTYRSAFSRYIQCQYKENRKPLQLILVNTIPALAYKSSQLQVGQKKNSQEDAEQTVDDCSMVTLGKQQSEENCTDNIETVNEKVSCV
Sequence of D(2) dopamine receptor (Homo sapiens, UniProt P14416) (P14416 whole entry): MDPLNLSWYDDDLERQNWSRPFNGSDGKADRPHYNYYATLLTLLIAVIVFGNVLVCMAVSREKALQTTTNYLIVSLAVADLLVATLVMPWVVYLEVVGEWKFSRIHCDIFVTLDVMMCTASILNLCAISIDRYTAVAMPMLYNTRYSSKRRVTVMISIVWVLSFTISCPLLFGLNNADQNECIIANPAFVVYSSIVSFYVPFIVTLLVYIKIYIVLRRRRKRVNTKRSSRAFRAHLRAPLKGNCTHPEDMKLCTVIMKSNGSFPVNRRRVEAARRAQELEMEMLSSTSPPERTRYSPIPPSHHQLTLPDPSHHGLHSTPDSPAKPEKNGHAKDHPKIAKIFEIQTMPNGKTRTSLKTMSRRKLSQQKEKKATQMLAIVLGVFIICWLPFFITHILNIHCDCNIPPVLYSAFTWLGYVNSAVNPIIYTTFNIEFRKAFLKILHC
Sequence of 5-hydroxytryptamine receptor 6 (P50406 whole entry): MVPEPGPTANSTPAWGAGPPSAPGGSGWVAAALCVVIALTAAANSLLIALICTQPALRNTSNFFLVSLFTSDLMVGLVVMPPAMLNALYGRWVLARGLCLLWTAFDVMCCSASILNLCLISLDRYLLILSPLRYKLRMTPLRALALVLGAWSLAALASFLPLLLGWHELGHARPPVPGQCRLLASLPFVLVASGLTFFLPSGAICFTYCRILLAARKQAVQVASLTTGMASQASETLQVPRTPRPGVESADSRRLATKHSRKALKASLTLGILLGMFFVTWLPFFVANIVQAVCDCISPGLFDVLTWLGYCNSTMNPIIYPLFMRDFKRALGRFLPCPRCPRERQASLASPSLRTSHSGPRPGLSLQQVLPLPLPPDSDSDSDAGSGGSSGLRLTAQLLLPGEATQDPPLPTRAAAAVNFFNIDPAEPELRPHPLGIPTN
T1 sequence (P34969 whole entry): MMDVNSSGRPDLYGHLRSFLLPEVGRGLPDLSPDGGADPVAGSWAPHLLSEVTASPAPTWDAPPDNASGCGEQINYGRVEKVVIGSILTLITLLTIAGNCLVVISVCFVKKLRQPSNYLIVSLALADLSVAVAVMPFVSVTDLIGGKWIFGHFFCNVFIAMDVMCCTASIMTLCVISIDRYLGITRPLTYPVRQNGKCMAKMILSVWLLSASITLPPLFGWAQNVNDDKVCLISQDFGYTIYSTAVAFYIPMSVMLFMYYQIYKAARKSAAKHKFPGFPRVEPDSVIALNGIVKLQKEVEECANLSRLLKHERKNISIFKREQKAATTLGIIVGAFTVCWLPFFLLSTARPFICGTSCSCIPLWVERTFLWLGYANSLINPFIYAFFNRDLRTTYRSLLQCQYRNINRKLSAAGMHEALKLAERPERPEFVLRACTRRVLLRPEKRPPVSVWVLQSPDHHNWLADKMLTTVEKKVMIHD

SMILES | Ki [1] | Ki [2] | Ki [3] | Ki [4] | Ki [5] | Ki (D(2) dopamine receptor [6]) | Ki [7] | Ki [8] | Ki (D(2) dopamine receptor [9])
COc1ccccc1N1CCN(CCCCCN2c3cccc4cccc(c34)S2(=O)=O)CC1 | 251 nM | – | – | – | – | – | – | – | –
O=C1Nc2cccc3c2C1(CCCCN1CCN(c2ccccc2Cl)CC1)CCC3 (configuration not stated) | – | 12 nM | – | – | – | – | – | – | –
O=S1(=O)c2cccc3cccc(c23)N1CCCCCCN1CCN(c2ccccc2F)CC1 | – | – | 81 nM | 710 nM | 203 nM | 90 nM | 376 nM | – | –
O=S1(=O)c2cccc3cccc(c23)N1CCCCCCN1CCN(c2ccc(C(F)(F)F)cc2)CC1 | – | – | 989 nM | 937 nM | 6000 nM | 927 nM | 1530 nM | – | –
O=S1(=O)c2cccc3cccc(c23)N1CCCN1CCN(c2ccc(Cl)cc2)CC1 | – | – | – | – | – | – | – | 5 nM | > 1000 nM
O=S1(=O)c2cccc3cccc(c23)N1CCCN1CCN(c2cccc(F)c2)CC1 | – | – | – | – | – | – | – | 18 nM | > 1000 nM
O=S1(=O)c2cccc3cccc(c23)N1CCCCCCN1CCN(c2ccccc2Cl)CC1 | – | – | 106 nM | 507 nM | 286 nM | 142 nM | 548 nM | – | –
O=S1(=O)c2cccc3cccc(c23)N1CCCCN1CCN(c2ccccc2)CC1 | 1000 nM | – | – | – | – | – | – | – | –
O=S1(=O)c2cccc3cccc(c23)N1CCCCCN1CCN(c2ccccc2)CC1 | 200 nM | – | – | – | – | – | – | – | –
COc1ccccc1N1CCN(CCCCCCN2c3cccc4cccc(c34)S2(=O)=O)CC1 | 200 nM | – | – | – | – | – | – | – | –
O=S1(=O)c2cccc3cccc(c23)N1CCCN1CCN(c2ccc(Br)cc2)CC1 | – | – | – | – | – | – | – | 7 nM | > 1000 nM
O=S1(=O)c2cccc3cccc(c23)N1CCCN1CCN(c2ccccc2F)CC1 | – | – | – | – | – | – | – | 3 nM | > 1000 nM
COc1ccccc1N1CCN(CCCCN2c3cccc4cccc(c34)S2(=O)=O)CC1 | 200 nM | – | – | – | – | – | – | – | –
COc1ccc(N2CCN(CCCCC34CCCc5cccc(c53)NC4=O)CC2)cc1 (configuration not stated) | – | 20 nM | – | – | – | – | – | – | –
O=S1(=O)c2cccc3cccc(c23)N1CCCN1CCN(c2ccc(F)cc2)CC1 [FANANSERIN] | – | – | – | – | – | – | – | – | > 1000 nM

Further lines, results first:

Ki [1] | Ki [2] | Ki [3] | Ki [4] | Ki [5] | Ki (D(2) dopamine receptor [6]) | Ki [7] | Ki [8] | Ki (D(2) dopamine receptor [9]) | SMILES
– | – | 43 nM | 480 nM | 53 nM | 75 nM | 429 nM | – | – | O=C1c2cccc3cccc(c23)N1CCCCCCN1CCN(c2cccc(Cl)c2)CC1
– | – | 46 nM | 624 nM | 432 nM | 121 nM | 322 nM | – | – | O=S1(=O)c2cccc3cccc(c23)N1CCCCCCN1CCN(c2cccc(Cl)c2)CC1
> 1000 nM | – | – | – | – | – | – | – | – | O=S1(=O)c2cccc3cccc(c23)N1CCCCCCN1CCN(c2ccccc2)CC1
– | – | 79 nM | 225 nM | 404 nM | 254 nM | 251 nM | – | – | O=S1(=O)c2cccc3cccc(c23)N1CCCCCCN1CCN(c2ccc(Cl)c(Cl)c2)CC1
– | – | 599 nM | 1130 nM | 17800 nM | 161 nM | 1770 nM | – | – | O=C1c2cccc3cccc(c23)N1CCCCCCN1CCN(c2ccccc2C(F)(F)F)CC1
– | – | 688 nM | 3190 nM | 1830 nM | 204 nM | 1490 nM | – | – | O=C1c2cccc3cccc(c23)N1CCCCCCN1CCN(c2ccc(Br)cc2)CC1
– | – | 66 nM | 1680 nM | 336 nM | 58 nM | 540 nM | – | – | O=C1c2cccc3cccc(c23)N1CCCCCCN1CCN(c2ccccc2Cl)CC1
– | – | 197 nM | 433 nM | 280 nM | 336 nM | 147 nM | – | – | O=S1(=O)c2cccc3cccc(c23)N1CCCCCCN1CCN(c2ccc(Cl)cc2)CC1
– | – | 149 nM | 237 nM | 140 nM | 220 nM | 177 nM | – | – | O=S1(=O)c2cccc3cccc(c23)N1CCCCCCN1CCN(c2cccc(Cl)c2Cl)CC1
– | – | 122 nM | 918 nM | 5100 nM | 94 nM | 406 nM | – | – | O=C1c2cccc3cccc(c23)N1CCCCCCN1CCN(c2cccc(Cl)c2Cl)CC1
– | – | 64 nM | 1730 nM | 420 nM | 320 nM | 524 nM | – | – | O=C1c2cccc3cccc(c23)N1CCCCCCN1CCN(c2ccccc2F)CC1
– | – | 161 nM | 1860 nM | 166 nM | 246 nM | 493 nM | – | – | O=C1c2cccc3cccc(c23)N1CCCCCCN1CCN(c2ccc(Cl)c(Cl)c2)CC1
– | – | 132 nM | 374 nM | 167 nM | 304 nM | 596 nM | – | – | O=S1(=O)c2cccc3cccc(c23)N1CCCCCCN1CCN(c2cccc(C(F)(F)F)c2)CC1
– | – | 54 nM | 2210 nM | 291 nM | 496 nM | 773 nM | – | – | O=C1c2cccc3cccc(c23)N1CCCCCCN1CCN(c2cccc(C(F)(F)F)c2)CC1
– | – | 536 nM | 2040 nM | 49000 nM | 945 nM | 4350 nM | – | – | O=C1c2cccc3cccc(c23)N1CCCCCCN1CCN(c2ccc(C(F)(F)F)cc2)CC1
– | – | 181 nM | 689 nM | 124 nM | 197 nM | 423 nM | – | – | O=C1c2cccc3cccc(c23)N1CCCCCCN1CCN(c2ccc(Cl)cc2)CC1
